Experimental data taken from patent publication US8309685B2 (Celgene Avilomics Research, Inc., priority 2007, dated 2012).

Tests used:
[1] = target: T1, wild type HCV NS3/4A 1b protease enzyme (Hepatitis C virus genotype 1b, UniProt P26663); experiment: HCV Protease FRET Assay (IC50_APP), wild type; assay type: biochemical
T1 construct: 10× stocks of NS3/4A protease enzyme from Bioenza (Mountain View, Calif.); purchased Bioenza (Mountain View, Calif.)

[2] = target: T2, HCV NS3/4A genotype 2a (Hepatitis C virus genotype 2a, UniProt P26660); experiment: Mass spectrometric analysis of covalent modification, genotype 2a; assay type: binding; details: 10× excess of compound, 3 hr
T2 construct: Mass spectrometric analysis of HCV NS3/4A genotypes 1a, 1b, 2a, and 3a
Protocol: (§1) Mass spectrometric analysis of HCV NS3/4A genotypes 1a, 1b, 2a, and 3a in the presence of test compound I-96 was performed using the following protocol: HCV NS3/4A was incubated for 3 hr at a 10× fold access of test compound to protein. 2 ul aliquots of the samples were diluted with 10 ul of 0.1% TFA prior to micro C4 ZipTipping directly onto the MALDI target using Sinapinic acid as the desorption matrix (10 mg/ml in 01% TFA:Acetonitrile 50:50). For intact protein mass measurement the instrument was set in Linear mode using a pulsed extraction setting of 24,500 and apomyoglobin as the standard to calibrate the instrument.

[3] = target: T3, A156T mutant of the HCV NS3/4A 1b protease enzyme (Hepatitis C virus genotype 1b, UniProt P26663, A1182T); experiment: HCV Protease FRET Assay (IC50_APP), A156T mutant; assay type: biochemical; details: apparent IC50, A156T mutant; read-out: IC50_APP, HCV A156T
T3 construct: 10× stocks of NS3/4A protease enzyme from Bioenza (Mountain View, Calif.); purchased Bioenza (Mountain View, Calif.)

[4] = test system: HCV RNA replicon in cell line ET (luc-ubi-neo/ET), human Huh7 hepatoma; experiment: Luciferase Assay (Example 35), replicon-derived luciferase activity; assay type: cell-based; details: Hepatitis C virus, Huh-7, assay described in Example 35
Method in brief: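 Huh7-derived ET cells carrying a luciferase-reporter HCV replicon, 5×10^3 cells/well, exposed 72 h to six 3-fold compound concentrations in DMEM with 5% FBS. Replicon luciferase gives EC50/EC90; Cell Titer Blue cell number gives cytotoxic IC50, with SI50 as their ratio. Interferon alpha-2b served as positive control.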

[5] = target: T4, D168A mutant of the HCV NS3/4A 1b protease enzyme (Hepatitis C virus genotype 1b, UniProt P26663, D1194A); experiment: HCV Protease FRET Assay (IC50_APP), D168A mutant; assay type: biochemical; details: apparent IC50, D168A mutant; read-out: IC50_APP, HCV D168A
T4 construct: 10× stocks of NS3/4A protease enzyme from Bioenza (Mountain View, Calif.); purchased Bioenza (Mountain View, Calif.)

[6] = target: T5, HCV NS3/4A genotype 1a (Hepatitis C virus genotype 1a, UniProt P27958); experiment: Mass spectrometric analysis of covalent modification, genotype 1a; assay type: binding; details: 10× excess of compound, 3 hr
T5 construct: Mass spectrometric analysis of HCV NS3/4A genotypes 1a, 1b, 2a, and 3a
Protocol: as §1

[7] = target: T6, HCV NS3/4A genotype 3a (Hepatitis C virus genotype 3a, UniProt Q81258); experiment: Mass spectrometric analysis of covalent modification, genotype 3a; assay type: binding; details: 10× excess of compound, 3 hr
T6 construct: Mass spectrometric analysis of HCV NS3/4A genotypes 1a, 1b, 2a, and 3a
Protocol: as §1

[8] = target: T7, HCV NS3/4A wild type (genotype 1b) (Hepatitis C virus genotype 1b, UniProt P26663); experiment: Mass spectrometric analysis (MALDI-TOF) of covalent modification, HCV wild type; assay type: binding; details: 10-fold excess of compound to protein, 3 hrs
T7 construct: mass spectroscopic analysis of HCV NS3/4A wild-type protease domain; purchased Bioenza Calif
Protocol: Mass spectrometric analysis of HCV wild type or HCV variant C159S in the presence of test compound was performed. 100 pmols of HCV wild type (Bioenza Calif.) was incubated with compound for 1 hr and 3 hrs at 10-fold access of […] to protein. 1 ul aliquots of the samples (total volume of 4.24 ul) were diluted with 10 ul of 0.1% TFA prior to micro C4 ZipTipping directly onto the MALDI target using Sinapinic acid as the desorption matrix (10 mg/ml in 01% TFA:Acetonitrile 50:50). Analyses were performed on a Shimadzu Biotech Axima TOF^2 (Shimadzu Instruments) matrix-assisted-laser desorption/ionization Time-of-Flight (MALDI-TOF) mass spectrometer. The same procedure was carried out on 100 pmols of HCV C159S mutant of HCV protease for 3 hrs at 10-fold excess of (I-3) to protein.
As depicted in FIGS. 2, 3, 4, and 5, mass spectrometric analysis of HCV wild type or HCV mutants in the presence of test compound (I-3) was performed. […] 1 ul aliquots of the samples were diluted with 10 ul of 0.1% TFA prior to micro C4 ZipTipping directly onto the MALDI target using Sinapinic acid as the desorption matrix (10 mg/ml in 0.1% TFA:Acetonitrile 50:50).
as §1, with “wild type (genotype 1b)” for “NS3/4A genotypes 1a, 1b, 2a, and 3a”, “compounds I-73 and I-75” for “compound I-96”, “NS3/4A wild type (wt)” for “NS3/4A”, “1” for “3”, “0.1%” for “01%”
Mass spectrometric analysis of HCV NS3/4A genotypes 1a, 1b, 2a, and 3a in the presence of test compound I-96 was performed using the following protocol: HCV NS3/4A was incubated for 3 hr at a 10× fold access of test compound to protein. […]

[9] = target: T8, C159S mutant of the HCV NS3/4A 1b protease enzyme (Hepatitis C virus genotype 1b, UniProt P26663, C1185S); experiment: HCV Protease FRET Assay (IC50_APP), C159S mutant; assay type: biochemical; details: apparent IC50, C159S mutant
T8 construct: 10× stocks of NS3/4A protease enzyme from Bioenza (Mountain View, Calif.); purchased Bioenza (Mountain View, Calif.)
Protocol: HCV Protease FRET Assay for WT and Mutated NS3/4A 1b Enzymes (IC50—APP).
The following protocol was used to generate “apparent” IC50 (IC50—APP) values as depicted in Table 6, below. […] 5 μL of each enzyme were added to Corning (#3575) 384-well, black, microtiter plates (Corning, N.Y.) after spotting a 0.5 μL volume of 50% DMSO and serially diluted compounds prepared in 50% DMSO. Protease reactions were immediately started after enzyme addition with the addition of 45 μL of the FRET substrate and monitored for 60-90 minutes at λex485/λem520 in a Synergy^4 plate reader from BioTek (Winooski, Vt.). At the conclusion of each assay, progress curves from each well were examined for linear reaction kinetics and fit statistics (R^2, 95% confidence intervals, absolute sum of squares).
The compound numbers correspond to the compound numbers in Table 3. […] ;

[10] = target: T9, R155K mutant of the HCV NS3/4A 1b protease enzyme (Hepatitis C virus genotype 1b, UniProt P26663, R1181K); experiment: HCV Protease FRET Assay (IC50_APP), R155K mutant; assay type: biochemical; details: apparent IC50, R155K mutant; read-out: IC50_APP, HCV R155K
T9 construct: 10× stocks of NS3/4A protease enzyme from Bioenza (Mountain View, Calif.); purchased Bioenza (Mountain View, Calif.)

[11] = target: T10, NS3 protease with R155K mutation in modified replicon system (Hepatitis C virus genotype 1b, UniProt Q9WMX2, E1202G/R1181K/T1280I); experiment: Inhibition of protease self cleavage after compound removal, R155K replicon system; assay type: cell-based
T10 construct: modified replicon system where the NS3 protease contains a clinically observed mutation; expressed in transfected cells; host or cells: Huh7-Lunet cells transfected with in vitro transcribed replicon RNA
Protocol: Constructs containing clinically relevant mutations were generated by performing site-directed mutagenesis on the pFK-I389-luc-ubi-neo-NS3-3′ET plasmid (ReBLikon Gmbh (Heidelberg, Germany)). using the QuickChange II Site-Directed Mutagenesis Kit (Stratagene, La Jolla, Calif.) according to manufacturer's directions and with the primers described in Table 7, below.
(§2) Huh-7-Luc-Neo-ET cells were plated in Replicon Assay Medium (RPMI supplemented with 5% FBS, 1× non-essential amino acids and pen/strep) at a density of 1×10^5 cells/well in 12 well plates. Eight hours later the media was removed and replaced with 1 ml media containing test compound (5 wells per compound) and 0.02% DMSO and the cells were returned to the incubator overnight. […]
Cell lysates were separated by SDS-Page (4-20%) and transferred to Immobilon-P PVDF membrane (Millipore Corporation, Mass.) and blotted with polyclonal anti NS3 antibody (Bioenza, Calif.). Blots were scanned on an Odyssey infrared scanner from Licor and the FL band and cleavage products were quantified separately using the Licor software provided with the scanner. The cleavage product was calculated as a percentage of the total NS3 in each sample and then normalized to the DMSO control so that the DMSO control reflects 100% activity. […]

[12] = test system: HCV RNA replicon in cell line ET (luc-ubi-neo/ET), human Huh7 hepatoma; experiment: Method A: HCV RNA replicon antiviral assay (luciferase, ET cell line); assay type: cell-based, Hepatitis C virus; details: Hepatitis C virus, Huh-7, assay described in Example 22
Method in brief: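 ET replicon cells (Huh7 carrying luciferase-reporter HCV replicon) plated at 5×10^3 cells/well and exposed 72 hr to six 3-fold drug concentrations in DMEM/5% FBS. Replicon luciferase gave EC50/EC90; CytoTox-1 cell counts gave IC50 (viability); […]. Interferon alpha-2b served as positive control.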

[13] = target: T11, NS3 protease self-cleavage in Huh-7-Luc-Neo-ET wild-type replicon cells (Hepatitis C virus genotype 1b, UniProt Q9WMX2, E1202G/T1280I); experiment: Inhibition of protease self cleavage after compound removal, wild-type replicon cells; assay type: cell-based; details: up to 24 hours after compound removal
T11 construct: host or cells: Huh-7-Luc-Neo-ET (human Huh7 hepatoma cells carrying the replicon)
Protocol: Inhibition of Protease Self Cleavage
as §2, with “overnight. Sixteen hours later 1 well from each compound and 1 untreated well were washed with PBS, then lysed and scraped into 30 ul of Cell Extraction Buffer (Biosource, Camarillo, Calif.) plus Complete Protease Inhibitor (Roche, Indianapolis, Ind.). The remaining wells were rinsed 2× with PBS then fed with Replicon Media and returned to the incubator.” for “overnight.”
Cell lysates were separated by SDS-Page (4-20%) and transferred to Immobilon-P PVDF membrane (Millipore Corporation, Mass.) and blotted with polyclonal anti NS3 antibody (Bioenza, Calif.). Blots were scanned on an Odyssey infrared scanner from Licor and the FL band and cleavage products were quantified separately using the Licor software provided with the scanner. The cleavage product was calculated as a percentage of the total NS3 in each sample and then normalized to the DMSO control so that the DMSO control reflects 100% activity.

## C=C[C@@H]1C[C@]1(NC(=O)[C@@H]1C[C@@H](Oc2nccc3cc(OC)ccc23)CN1C(=O)[C@H](CCC(=O)C=C(C)C)NC(=O)OC(C)(C)C)C(=O)NS(=O)(=O)C1CC1 [Compound I-96, {1-[2-(1-Cyclopropanesulfonylaminocarbonyl-2-vinyl-cyclopropylcarbamoyl)-4-(6-methoxy-isoquinolin-1-yloxy)-pyrrolidine-1-carbonyl]-6-methyl-4-oxo-hept-5-enyl}-carbamic acid tert-butyl ester]
[1]
  IC50: < 10 nM
[2]
  Covalent modification of HCV NS3/4A genotype 2a by mass spectrometry: measurable covalent modification
[3]
  IC50: 10 to 100 nM
[4]; EC90
  EC90: 10 to 100 nM
[4]
  EC50: < 10 nM
[5]
  IC50: 100 to 1000 nM
[6]
  Covalent modification of HCV NS3/4A genotype 1a by mass spectrometry: measurable covalent modification
[7]
  Covalent modification of HCV NS3/4A genotype 3a by mass spectrometry: measurable covalent modification
[8]
  Covalent modification of HCV wild type by mass spectrometry: measurable covalent modification
[9]
  IC50: < 10 nM
[10]
  IC50: 10 to 100 nM

## C=CC(=O)N[C@H](C)C(=O)N1C[C@H](Oc2cc(-c3ccccc3)nc3cc(OC)ccc23)C[C@H]1C(=O)N[C@]1(C(=O)NS(=O)(=O)C2CC2)C[C@H]1C=C [Compound I-54, (2S,4R)-1-((R)-2-acrylamidopropanoyl)-N-((1R,2S)-1-(cyclopropylsulfonylcarbamoyl)-2-vinylcyclopropyl)-4-(7-methoxy-2-phenylquinolin-4-yloxy)pyrrolidine-2-carboxamide]
[11]
  Duration of inhibition of mutant protease activity after compound removal: at least 24 hours
[1]
  IC50: < 10 nM
[3]
  IC50: 10 to 100 nM
[5]
  IC50: 10 to 100 nM
[12]; IC90
  IC90: < 10 nM
[12]; read-out: Replicon (IC50)
  IC50: < 10 nM
[13]
  Inhibition of NS3 protease activity (self-cleavage) after compound removal: virtually complete inhibition
